Values belong to the molecule of their own block, whether it stands above or below them.
Experiments:
[1] = target: Aurora kinase B (Homo sapiens, UniProt Q96GD4); experiment: Selectivity interaction (Enyzmatic assay) EUB0000601a AURKB
[2] = target: Cyclin-dependent kinase 5/CDK5 activator 1 (Homo sapiens) (UniProt Q00535+Q15078); experiment: Selectivity interaction (Kinase panel (Invitrogen)) EUB0000639a CDK5; assay type: protein-complex assay; settings: at 200 nM
[3] = target: Histone-lysine N-methyltransferase SETDB1 (Homo sapiens) (UniProt Q15047); settings: at 1 µM
[4] = target: Prostaglandin G/H synthase 2 (Homo sapiens, UniProt P35354); experiment: Selectivity interaction (COX-2 assay, human recombinant ) EUB0000877a PTGS2
[5] = test system: Epidermal growth factor receptor (Homo sapiens), P00533 [UNDEFINED MUTATION]; experiment: Selectivity interaction (KinomeScan (DiscoverX)) EUB0001079a EGFR; settings: at 1 µM
Epidermal growth factor receptor (Homo sapiens), P00533 [UNDEFINED MUTATION], sequence (P00533 whole entry, looked up, change not shown): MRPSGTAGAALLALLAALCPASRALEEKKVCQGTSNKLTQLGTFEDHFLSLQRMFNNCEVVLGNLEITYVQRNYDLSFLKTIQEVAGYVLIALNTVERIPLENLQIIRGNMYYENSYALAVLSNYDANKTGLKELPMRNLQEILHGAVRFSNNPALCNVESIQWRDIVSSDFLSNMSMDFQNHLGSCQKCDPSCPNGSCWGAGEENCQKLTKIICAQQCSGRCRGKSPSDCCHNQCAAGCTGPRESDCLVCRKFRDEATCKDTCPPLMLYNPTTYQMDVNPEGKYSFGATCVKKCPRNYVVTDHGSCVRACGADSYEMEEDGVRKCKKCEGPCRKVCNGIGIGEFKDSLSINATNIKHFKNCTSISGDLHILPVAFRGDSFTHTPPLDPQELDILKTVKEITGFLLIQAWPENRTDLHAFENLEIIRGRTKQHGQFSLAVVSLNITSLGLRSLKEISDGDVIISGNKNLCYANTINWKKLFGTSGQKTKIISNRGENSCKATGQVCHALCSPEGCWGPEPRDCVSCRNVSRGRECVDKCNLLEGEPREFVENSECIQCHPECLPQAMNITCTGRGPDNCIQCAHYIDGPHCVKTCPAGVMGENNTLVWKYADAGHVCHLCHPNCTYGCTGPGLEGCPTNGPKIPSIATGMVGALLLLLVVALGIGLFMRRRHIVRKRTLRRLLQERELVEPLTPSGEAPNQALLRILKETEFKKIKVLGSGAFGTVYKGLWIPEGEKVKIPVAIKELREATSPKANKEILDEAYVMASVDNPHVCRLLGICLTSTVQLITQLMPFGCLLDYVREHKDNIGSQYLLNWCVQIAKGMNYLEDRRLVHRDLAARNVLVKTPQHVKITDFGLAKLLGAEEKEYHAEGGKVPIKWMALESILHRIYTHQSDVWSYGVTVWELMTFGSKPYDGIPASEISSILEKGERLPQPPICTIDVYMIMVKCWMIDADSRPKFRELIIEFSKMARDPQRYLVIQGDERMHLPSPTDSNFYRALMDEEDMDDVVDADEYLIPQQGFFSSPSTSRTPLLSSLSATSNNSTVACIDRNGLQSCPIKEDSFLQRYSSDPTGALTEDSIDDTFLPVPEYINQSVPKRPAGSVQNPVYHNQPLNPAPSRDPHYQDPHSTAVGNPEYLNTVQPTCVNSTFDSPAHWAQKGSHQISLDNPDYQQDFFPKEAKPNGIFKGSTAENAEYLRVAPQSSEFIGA

[6] = target: T1, NUAK family SNF1-like kinase 2 (Homo sapiens) (UniProt Q9H093); experiment: Selectivity interaction (KinomeScan (DiscoverX)) EUB0001079a NUAK2; settings: at 1 µM
T1 sequence (whole entry): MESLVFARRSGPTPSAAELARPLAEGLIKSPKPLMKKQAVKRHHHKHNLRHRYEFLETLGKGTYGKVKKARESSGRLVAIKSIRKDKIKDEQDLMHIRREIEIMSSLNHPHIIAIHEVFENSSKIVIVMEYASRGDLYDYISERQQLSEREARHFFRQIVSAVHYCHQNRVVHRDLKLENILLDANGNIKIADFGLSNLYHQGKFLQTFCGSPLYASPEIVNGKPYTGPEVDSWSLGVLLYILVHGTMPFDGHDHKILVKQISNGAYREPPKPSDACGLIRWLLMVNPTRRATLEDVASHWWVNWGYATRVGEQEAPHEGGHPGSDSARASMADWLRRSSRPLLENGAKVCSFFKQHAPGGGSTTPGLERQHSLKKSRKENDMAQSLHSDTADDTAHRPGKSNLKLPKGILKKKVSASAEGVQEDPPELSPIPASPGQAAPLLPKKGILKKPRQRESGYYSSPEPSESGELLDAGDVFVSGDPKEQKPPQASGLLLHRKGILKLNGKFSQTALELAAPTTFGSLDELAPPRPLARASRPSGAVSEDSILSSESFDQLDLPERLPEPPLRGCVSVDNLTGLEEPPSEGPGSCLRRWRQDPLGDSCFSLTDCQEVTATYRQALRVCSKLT

[7] = target: Bromodomain-containing protein 2 (Homo sapiens) (UniProt P25440); experiment: Selectivity interaction (Human bromodomain panel (DSF assay)) EUB0000233b BRD2
[8] = target: BDNF/NT-3 growth factors receptor (Homo sapiens) (UniProt Q16620); experiment: Selectivity interaction (KinomeScan (DiscoverX)) EUB0000045b NTRK2
BDNF/NT-3 growth factors receptor (Homo sapiens), sequence (Q16620 32-822 limits assumed): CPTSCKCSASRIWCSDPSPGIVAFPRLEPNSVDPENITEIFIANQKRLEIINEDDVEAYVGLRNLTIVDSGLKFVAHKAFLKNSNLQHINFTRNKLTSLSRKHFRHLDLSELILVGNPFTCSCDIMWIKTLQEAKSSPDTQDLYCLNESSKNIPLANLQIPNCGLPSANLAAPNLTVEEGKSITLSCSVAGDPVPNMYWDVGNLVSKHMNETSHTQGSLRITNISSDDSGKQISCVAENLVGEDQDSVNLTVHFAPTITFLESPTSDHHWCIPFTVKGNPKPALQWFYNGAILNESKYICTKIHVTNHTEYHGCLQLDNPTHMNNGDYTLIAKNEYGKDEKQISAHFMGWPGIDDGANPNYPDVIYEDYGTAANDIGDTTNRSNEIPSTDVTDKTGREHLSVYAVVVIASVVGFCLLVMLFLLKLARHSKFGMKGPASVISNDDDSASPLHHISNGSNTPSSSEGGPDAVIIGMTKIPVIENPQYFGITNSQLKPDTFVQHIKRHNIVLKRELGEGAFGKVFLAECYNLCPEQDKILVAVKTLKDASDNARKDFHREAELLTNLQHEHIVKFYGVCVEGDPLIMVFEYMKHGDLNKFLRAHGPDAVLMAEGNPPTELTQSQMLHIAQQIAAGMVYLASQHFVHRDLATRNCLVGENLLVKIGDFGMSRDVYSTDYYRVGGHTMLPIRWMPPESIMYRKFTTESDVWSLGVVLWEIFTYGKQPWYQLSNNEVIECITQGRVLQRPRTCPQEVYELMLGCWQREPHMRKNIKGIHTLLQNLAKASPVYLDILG

[9] = target: Ribosomal protein S6 kinase alpha-6 (Homo sapiens, UniProt Q9UK32); experiment: Selectivity interaction (KinomeScan (DiscoverX)) EUB0000045b RPS6KA6; settings: at 1 µM
Ribosomal protein S6 kinase alpha-6, sequence (Q9UK32 whole entry): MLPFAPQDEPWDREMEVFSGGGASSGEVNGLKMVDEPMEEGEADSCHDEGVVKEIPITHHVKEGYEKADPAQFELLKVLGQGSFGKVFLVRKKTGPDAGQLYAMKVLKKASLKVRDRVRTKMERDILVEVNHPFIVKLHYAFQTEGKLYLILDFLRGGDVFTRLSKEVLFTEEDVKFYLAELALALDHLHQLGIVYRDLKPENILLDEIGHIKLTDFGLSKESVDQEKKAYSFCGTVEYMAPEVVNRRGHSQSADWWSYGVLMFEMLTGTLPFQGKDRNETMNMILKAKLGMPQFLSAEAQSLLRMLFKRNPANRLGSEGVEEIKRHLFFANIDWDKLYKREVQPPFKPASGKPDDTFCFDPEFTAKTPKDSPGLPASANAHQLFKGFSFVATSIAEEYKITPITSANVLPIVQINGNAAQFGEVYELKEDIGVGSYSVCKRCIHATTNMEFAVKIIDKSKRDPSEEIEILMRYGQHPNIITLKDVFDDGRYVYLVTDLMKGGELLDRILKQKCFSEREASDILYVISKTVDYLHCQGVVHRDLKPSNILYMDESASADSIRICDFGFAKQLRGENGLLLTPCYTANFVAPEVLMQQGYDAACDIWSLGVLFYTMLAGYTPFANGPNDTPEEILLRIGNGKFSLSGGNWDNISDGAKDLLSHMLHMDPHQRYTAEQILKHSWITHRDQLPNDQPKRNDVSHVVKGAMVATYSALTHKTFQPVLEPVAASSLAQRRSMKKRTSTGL

[10] = target: Mitogen-activated protein kinase 9 (Homo sapiens, UniProt P45984); experiment: Selectivity interaction (KinomeScan (DiscoverX)) EUB0001619a MAPK9; settings: at 1 µM
Mitogen-activated protein kinase 9, sequence (P45984 whole entry, looked up): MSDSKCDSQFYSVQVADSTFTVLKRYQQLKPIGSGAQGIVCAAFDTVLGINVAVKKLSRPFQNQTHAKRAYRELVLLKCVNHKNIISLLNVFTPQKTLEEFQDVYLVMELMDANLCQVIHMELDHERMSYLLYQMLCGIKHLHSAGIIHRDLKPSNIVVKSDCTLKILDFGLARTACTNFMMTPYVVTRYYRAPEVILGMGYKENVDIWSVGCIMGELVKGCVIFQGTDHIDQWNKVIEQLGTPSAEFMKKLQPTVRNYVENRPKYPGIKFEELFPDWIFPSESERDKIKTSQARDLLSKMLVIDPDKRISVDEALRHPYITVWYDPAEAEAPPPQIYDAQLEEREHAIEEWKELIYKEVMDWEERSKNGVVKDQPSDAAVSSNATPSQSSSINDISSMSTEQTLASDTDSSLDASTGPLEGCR

[11] = target: SRSF protein kinase 1 (Homo sapiens, UniProt Q96SB4); experiment: Selectivity interaction (SelectScreen profiling (Invitrogen)) EUB0000607a SRPK1; settings: at 2 µM
SRSF protein kinase 1, sequence (Q96SB4 whole entry): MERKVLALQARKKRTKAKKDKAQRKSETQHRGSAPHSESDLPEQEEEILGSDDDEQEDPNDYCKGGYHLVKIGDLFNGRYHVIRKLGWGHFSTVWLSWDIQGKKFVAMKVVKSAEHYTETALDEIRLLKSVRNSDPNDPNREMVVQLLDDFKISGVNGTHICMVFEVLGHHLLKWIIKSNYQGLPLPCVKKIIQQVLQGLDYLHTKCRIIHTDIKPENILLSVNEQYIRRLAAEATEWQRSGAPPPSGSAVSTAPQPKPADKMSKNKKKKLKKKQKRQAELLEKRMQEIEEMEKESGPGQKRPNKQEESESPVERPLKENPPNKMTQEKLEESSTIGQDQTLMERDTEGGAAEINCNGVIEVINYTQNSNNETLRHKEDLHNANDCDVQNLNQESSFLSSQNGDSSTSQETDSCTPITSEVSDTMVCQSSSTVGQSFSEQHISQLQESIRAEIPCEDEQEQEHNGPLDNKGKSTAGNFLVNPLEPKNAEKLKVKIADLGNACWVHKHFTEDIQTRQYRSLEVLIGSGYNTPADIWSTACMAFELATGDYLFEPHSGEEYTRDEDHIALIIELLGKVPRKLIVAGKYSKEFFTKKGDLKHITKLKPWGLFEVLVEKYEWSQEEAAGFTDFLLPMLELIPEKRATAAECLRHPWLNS

[12] = target: Cyclin-dependent kinase 1 (Homo sapiens) (UniProt P06493); experiment: Selectivity interaction (Kinase panel (KiNativ target engagement assay in Jurkat cells)) EUB0001635a CDK1; assay type: cell-based; settings: Selectivity number of off-targets 0.0, Selectivity number of targets 233.0, Source Knowledge https://www.sciencedirect.com/science/article/pii/S2451945619300674?via%3Dihub, at 1 µM
Cyclin-dependent kinase 1 (Homo sapiens), sequence (P06493 whole entry, looked up): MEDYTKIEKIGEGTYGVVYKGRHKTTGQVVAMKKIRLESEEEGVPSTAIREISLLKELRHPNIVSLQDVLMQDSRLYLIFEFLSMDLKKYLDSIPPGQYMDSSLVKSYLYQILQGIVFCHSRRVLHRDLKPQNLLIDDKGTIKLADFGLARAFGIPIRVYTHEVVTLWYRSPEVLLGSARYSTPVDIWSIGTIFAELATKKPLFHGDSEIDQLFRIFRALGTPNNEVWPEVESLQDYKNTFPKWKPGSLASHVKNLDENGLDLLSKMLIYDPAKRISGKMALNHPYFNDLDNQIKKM

Aurora kinase B, sequence (Q96GD4 whole entry): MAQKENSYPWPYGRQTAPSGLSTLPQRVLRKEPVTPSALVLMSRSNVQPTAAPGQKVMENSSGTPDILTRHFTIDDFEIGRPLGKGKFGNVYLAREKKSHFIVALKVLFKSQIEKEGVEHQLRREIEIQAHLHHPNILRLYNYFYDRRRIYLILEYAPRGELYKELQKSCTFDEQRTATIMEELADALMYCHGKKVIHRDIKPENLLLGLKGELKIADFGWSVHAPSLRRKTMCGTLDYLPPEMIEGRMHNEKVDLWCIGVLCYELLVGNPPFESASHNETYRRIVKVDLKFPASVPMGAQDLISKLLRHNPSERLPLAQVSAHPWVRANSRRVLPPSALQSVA
Cyclin-dependent kinase 5/CDK5 activator 1 (Homo sapiens), sequence (Q00535 whole entry): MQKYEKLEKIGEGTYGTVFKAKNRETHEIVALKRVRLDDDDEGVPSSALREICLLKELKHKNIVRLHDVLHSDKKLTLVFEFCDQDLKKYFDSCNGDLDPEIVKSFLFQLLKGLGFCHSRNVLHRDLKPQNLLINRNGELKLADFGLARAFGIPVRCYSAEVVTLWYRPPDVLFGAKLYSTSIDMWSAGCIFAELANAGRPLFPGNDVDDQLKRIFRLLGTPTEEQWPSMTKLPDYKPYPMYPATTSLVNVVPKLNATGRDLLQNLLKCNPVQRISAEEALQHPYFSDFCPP
Cyclin-dependent kinase 5/CDK5 activator 1 (Homo sapiens), sequence (Q15078 99-307 partner limits assumed): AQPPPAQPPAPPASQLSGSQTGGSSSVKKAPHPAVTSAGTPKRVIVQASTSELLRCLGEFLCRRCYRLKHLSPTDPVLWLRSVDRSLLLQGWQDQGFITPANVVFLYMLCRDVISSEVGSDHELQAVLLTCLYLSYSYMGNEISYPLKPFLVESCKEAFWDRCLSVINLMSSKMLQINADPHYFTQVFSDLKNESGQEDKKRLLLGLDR

SMILES: CCc1cc(Nc2nccc(-c3c(-c4ccc(OC)c(C(=O)Nc5c(F)cccc5F)c4)nc4ccccn34)n2)c(OC)cc1N1CCC(N2CCN(S(C)(=O)=O)CC2)CC1
IC50 [1]: > 4 µM

SMILES: Nc1cnc(N2CCc3cc(S(=O)(=O)Nc4c(F)cc(Cl)cc4F)cc(N4CCCC4=O)c32)nc1 [TP-020n]
% of control [5]: 63%
% of control [6]: 100%

SMILES: CN(C)CCCOc1ccc(-c2cc(NCCCn3cccn3)nc(S(C)(=O)=O)n2)cc1
dTM [7]: < 2 K

SMILES: C=CC(=O)Nc1cc(-n2c(=O)ccc3cnc4ccc(-c5ccc(NS(C)(=O)=O)cc5)cc4c32)ccc1C
% of control ([8]; at 1 µM): 62%
% of control ([8]; at 10 µM): 78%
% of control [9]: 56%

SMILES: N#Cc1cccc(-c2c[nH]c3ncnc(N4CCOCC4)c23)c1
% of control [10]: 87%

SMILES: CNC(=O)Nc1ccc(-c2nc(N3CC4CCC(C3)O4)c3cnn(C4CCC5(CC4)OCCO5)c3n2)cc1
% of inhibition [11]: 2%

SMILES: C=CC(=O)Nc1ccc(C(=O)Nc2[nH]nc3c2CN(C(=O)N[C@H](CN(C)C)c2ccccc2)C3(C)C)cc1
% of engagement [12]: -3.1%

The next lines start with the values.

% of inhibition [2]: 4.16%
SMILES: CC[C@@H]1[C@H](F)C(=O)N[C@@H]1COc1nccc2cc(C(N)=O)c(OC)cc12 [ZIMLOVISERTIB]

% activity [3]: > 90%
SMILES: CNCCN1CCC(c2cc(CN(C)C(=O)c3cccc(Oc4ccccc4)c3)ccn2)CC1

IC50 [4]: > 30 µM
SMILES: CCC(=O)N1CC[C@H](Nc2ncnc3c2CN(c2cnc(OC)c(C(F)(F)F)c2)CC3)C1 [LENIOLISIB]
